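Results reflect a 48-hour exposure of cells in 96-well plates to compound at five concentrations. GI50 = concentration required for 50% inhibition of growth. The concentration for full growth arrest is given as TGI.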
Assays:
Assay in all cases: NCI-60 cell line screen, 48 h
HL-60(TB) leukemia = system: HL-60(TB) leukemia
HOP-62 NSCLC = system: HOP-62 NSCLC
KM12 colon = system: KM12 colon
M14 melanoma = system: M14 melanoma
OVCAR-3 ovarian = system: OVCAR-3 ovarian
OVCAR-4 ovarian = system: OVCAR-4 ovarian
SF-539 CNS = system: SF-539 CNS
SK-MEL-28 melanoma = system: SK-MEL-28 melanoma
RXF 393 renal = system: RXF 393 renal

Compound | TGI (HL-60(TB) leukemia) [µM] | TGI (HOP-62 NSCLC) [µM] | TGI (KM12 colon) [µM] | TGI (M14 melanoma) [µM] | TGI (OVCAR-3 ovarian) [µM] | TGI (OVCAR-4 ovarian) [µM] | TGI (SF-539 CNS) [µM] | TGI (SK-MEL-28 melanoma) [µM] | TGI (RXF 393 renal) [µM] | GI50 (HOP-62 NSCLC) [µM] | GI50 (KM12 colon) [µM] | GI50 (M14 melanoma) [µM] | GI50 (OVCAR-3 ovarian) [µM] | GI50 (OVCAR-4 ovarian) [µM] | GI50 (RXF 393 renal) [µM] | GI50 (SF-539 CNS) [µM] | GI50 (SK-MEL-28 melanoma) [µM] | GI50 (HL-60(TB) leukemia) [µM]
COC(=O)/C=C1\CCC2[C@@H](C(=O)CC3[C@]2(C)CCC[C@@]3(C)C(=O)OC)C1C (stereo not given in full) | 35.1 | 69.7 | 42.6 | 34.2 | 89 | 78.8 | 61.1 | 31.8 | – | – | – | – | – | – | – | – | – | –
Cc1nc2ccccc2c(=O)n1/N=C(\N=Nc1ccccc1)c1ccccc1Cl | > 100 | > 100 | > 100 | > 100 | > 100 | > 100 | 65.2 | > 100 | 61.8 | – | – | – | – | – | – | – | – | –
C[C@]12Cc3conc3C(O)=C1CC[C@@H]1C2CC[C@@]2(C)C1CC[C@@H]2O (stereo not given in full) | 10.7 | > 100 | 70.7 | 50 | 52.5 | > 100 | 44 | > 100 | 44.9 | – | – | – | – | – | – | – | – | –
O=C1CCCc2ccc([N+](=O)[O-])c(O)c21 | > 100 | > 100 | > 100 | > 100 | > 100 | > 100 | > 100 | > 100 | > 100 | – | – | – | – | – | – | – | – | –
C=CC12CCCCC1CC(C(=O)OC)=C(O)C2 (stereo not given) | > 100 | > 100 | > 100 | > 100 | > 100 | > 100 | > 100 | > 100 | > 100 | – | – | – | – | – | – | – | – | –
O=S1Nc2cccc(C(F)(F)F)c2S1 (stereo not given) | 31.8 | > 100 | 59.9 | > 100 | > 100 | > 100 | > 100 | > 100 | 73.7 | – | – | – | – | – | – | – | – | –
N#CC(Sc1ccccc1)C(N)=O (stereo not given) | > 100 | > 100 | > 100 | > 100 | > 100 | > 100 | > 100 | – | > 100 | – | – | – | – | – | – | – | – | –
c1cc[c]([Ge]([O]c2cccc3cccnc23)([c]2ccccc2)[c]2ccccc2)cc1 | – | 25.6 | 5.09 | 17.5 | 6.82 | 13.1 | 11.3 | 14.3 | 5.49 | 12.7 | 1.95 | 5.63 | 2.55 | 3.11 | 1.88 | 3.36 | 3.56 | –
O=C(O)c1cnc2c(ccc3[nH]cccc32)c1=O | > 100 | > 100 | > 100 | > 100 | > 100 | > 100 | > 100 | > 100 | > 100 | – | – | – | – | – | – | – | – | –
COc1ccc(Nc2ncc(I)c(NCCCNC(=O)C3CCC3)n2)cc1 | 14.7 | 21.8 | > 100 | > 100 | 33.8 | 64.2 | 18.4 | > 100 | 6.54 | 1.64 | 3.42 | 13.4 | 7.83 | 9.31 | 1.27 | 3.47 | 18 | 3.47
COc1ccc2cc3c4cc(OC)c(OC)cc4ccn3c2c1 | > 100 | > 100 | > 100 | – | – | > 100 | > 100 | > 100 | > 100 | – | – | – | – | – | – | – | – | –
O=CCCn1[nH]c(=O)ccc1=O | > 100 | – | – | > 100 | > 100 | > 100 | > 100 | > 100 | > 100 | – | – | – | – | – | – | – | – | –
CC1OC(n2cc(F)c(=O)[nH]c2=O)CCC1=O (stereo not given) | > 100 | > 100 | > 100 | > 100 | – | > 100 | 88.7 | – | > 100 | – | – | – | – | – | – | – | – | –
O/N=C1/CCCC/C1=C\c1ccc(Cl)c(Cl)c1 | 23 | > 100 | – | 82.9 | 49.7 | 59.3 | 41.1 | > 100 | – | – | – | – | – | – | – | – | – | –
NC1=NN(c2ccccc2)C(=O)C1C(=O)C(=O)Nc1ccccc1 (stereo not given) | > 100 | > 100 | > 100 | > 100 | > 100 | > 100 | > 100 | – | – | – | – | – | – | – | – | – | – | –
COc1ccc(/C=C/c2onc3c(=O)n(C)nc(-c4ccccc4)c23)cc1 | > 100 | > 100 | – | > 100 | – | – | > 100 | > 100 | > 100 | – | – | – | – | – | – | – | – | –
C=C(C)CC(C(=O)O)c1ccc(C)cc1 (stereo not given) | – | > 100 | > 100 | – | > 100 | > 100 | > 100 | > 100 | > 100 | – | – | – | – | – | – | – | – | –
C[C@@H]1CC[C@@]2(C)OC(c3ccccc3)[C@H](CO)N2C1=O (stereo not given in full) | – | > 100 | > 100 | – | > 100 | > 100 | > 100 | > 100 | > 100 | – | – | – | – | – | – | – | – | –
CC(C)N(C(=O)C12C3C4C5C3C1(C(=O)O)C5C42)C(C)C (stereo not given) | > 100 | > 100 | > 100 | > 100 | > 100 | > 100 | > 100 | > 100 | – | – | – | – | – | – | – | – | – | –
CC(=O)N1c2ccccc2N(C(C)=O)C1c1ccc(C2N(C(C)=O)c3ccccc3N2C(C)=O)[nH]1 | > 100 | > 100 | > 100 | > 100 | > 100 | > 100 | > 100 | – | > 100 | – | – | – | – | – | – | – | – | –

— PubChem BioAssay (NCI)
